Reference: ChEMBL document CHEMBL3301361, “Experimental in vitro DMPK and physicochemical data on a set of publicly disclosed compounds”

Assay: physchem
Settings: octan-1-ol/water, pH 7.4

Compound | logD
CC(=O)c1ccc2c(c1)N(CCN1CCC(NCc3ccc4c(n3)NC(=O)CO4)CC1)C(=O)CO2 | 0.37
O=C(NCc1ccncn1)c1ccc(Oc2ccc(C#C[C@]3(O)CN4CCC3CC4)cc2)cc1 | 1.78
O=C(c1ccc(C(=C2CCN(Cc3cscn3)CC2)c2cccc3cccnc23)cc1)N1CCC(O)CC1 | 1.89
CCN(CC)C(=O)N[C@H]1C[C@@H]2c3cccc4[nH]cc(c34)C[C@H]2N(C)C1 [TERGURIDE] | 2.73
O=C(O)c1cn(C2CC2)c2cc(=[N+]3CCN(C(=O)CC[N+](=O)[O-])CC3)c(F)cc-2c1[O-] | 0.22
CC1(C)CCC(NC(=O)[C@@H](N)CCC(=O)O)CC1 [NEBOGLAMINE] | -0.27
O=C(Cc1c(C(=O)O)[nH]c2ccccc12)Nc1cccc(C(F)(F)F)c1 | 1.33
Cc1cc(O)nc(-n2nc(C)c(Oc3ccccc3O)c2C)n1 | 1.4
CN1C(=O)NC(=O)C(C)(C2=CCCCC2)C1=O (centres undefined) [HEXOBARBITAL] | 1.5
C[C@H]1NC(C)(C)CO[C@]1(O)c1cccc(Cl)c1 | 1.69
CN1CC=CCC(c2ccc(Cl)c(Cl)c2)C1 (centres undefined) | 3.32
CN1CCC[C@H]1c1cccnc1 [NICOTINE] | 0.5
Cc1cc(N)c2cc(NC(=O)CC(=O)Nc3ccc4nc(C)cc(N)c4c3)ccc2n1 | 1.35
c1ccc2c(OCC3=NCCN3)cccc2c1 | 0.68
Cc1cccc([C@H](C)c2cnc[nH]2)c1C [DEXMEDETOMIDINE] | 2.79
Nc1ncnc2oc(-c3ccoc3)c(-c3ccco3)c12 | 3.1

Same assay, conditions: octan-1-ol/water, pH 7.4, LogD7.4

Compound | logD
CC(=O)N(C)c1ccc2ccn(-c3cc(NC4CC4)n4ncc(C#N)c4n3)c2c1 | 2.9
CN1CCN(C(=O)c2cc(-c3ccccc3)sc2NC(N)=O)CC1 | 2.17
CC(=O)NC(C)c1ccc(Nc2ncc3cc(-c4ccncc4)ccc3n2)cc1 (centres undefined) | 3.1
Nc1n[nH]c2c(Cl)cccc12 | 1.7
O=C(CC1CCN(Cc2ccn(-c3ccc(C(F)(F)F)cc3)c2)CC1)NC(c1ccc(F)cc1)c1c[nH]c(=O)c(Cl)c1 (centres undefined) | 3.12
Cc1ncccc1Oc1ncnc(OC2C3COCC2CN(C(=O)OC(C)C)C3)c1C (centres undefined) | 3.1
NC(Cc1cc(I)c(Oc2ccc(O)c(I)c2)c(I)c1)C(=O)O (centres undefined) [RATHYRONINE] | 0.97
O=S(=O)(NCC(c1ccccc1)N1CCCCCC1)c1ccc(Br)cc1 (centres undefined) | 3.21
COc1cc(C(=O)Nc2ccc(N3CCOCC3)cc2)nc2c(N3CCN(C)CC3)cc(F)cc12 | 3.85
CC(C)COCC(CN(Cc1ccccc1)c1ccccc1)N1CCCC1 (centres undefined) [BEPRIDIL] | 3.66
Cc1cnc(-c2ccc(C)c(NC(=O)c3ccc(OCc4ccccn4)cc3)c2)[nH]1 | 3.19
COc1ncc(-c2ccc3nccc(-c4ccnnc4)c3c2)cc1NS(=O)(=O)c1ccc(F)cc1F [OMIPALISIB] | 2.5
O=C(NCc1ccccn1)c1ccc(Oc2ccccc2)cc1 | 2.7
c1ccc(-c2cc(NCCCCCCCCNc3cc(-c4ccccc4)nc4ccccc34)c3ccccc3n2)cc1 | 2.27
NS(=O)(=O)Cc1noc2ccccc12 [ZONISAMIDE] | 0.55
COc1cc(CNc2nc3ccccc3[nH]2)cc(OC)c1OC | 2.36
CC(=O)NC[C@H]1CN(c2ccc(-n3ccnc3)c(F)c2)C(=O)O1 | 0.7
O=C(c1cc(Cc2n[nH]c(=O)c3ccccc23)ccc1F)N1CCN(C(=O)C2CCCO2)CC1 (centres undefined) | 0.9
CC(C)C(NC(=O)Cn1c(-c2cccnc2)ncc(NC(=O)OCc2ccccc2)c1=O)C(=O)C(F)(F)F (centres undefined) | 2.15
O=C1O[C@@H](COc2ccon2)CN1c1ccc(C2=CCOCC2)c(F)c1 | 2.61
CCN1CCO[C@@H](CN2CCN(C(=O)Nc3ccc(Cl)c(Cl)c3)CC2)C1 | 2.68
CCCC(=O)C1(c2ccccc2)CCN(C(=O)[C@@H](Cc2ccc(OC)cc2)NC(=O)[C@@H](N)Cc2cncn2C)CC1 | 2.51

Compound | logD
O=S(=O)(c1ccccc1-c1ccc(CNC2CCOCC2)cc1)N1CCCC1 | 1.4
CCOc1ccccc1-c1ccc(-c2nc3ccc(F)cc3c(C(=O)O)c2C)cc1 | 1.18
O=C(c1cc2cc(Cl)ccc2[nH]1)N1CCNCC1 | 1.65
COc1ccc(-c2cc(NC(=O)Cc3ccc4ccccc4c3)[nH]n2)cc1OC | 3.1
COc1cccc([C@H](O)C2CCN(CCc3ccc(F)cc3)CC2)c1OC [VOLINANSERIN] | 1.7
CN1CCCC(n2nc(Cc3ccc(Cl)cc3)c3ccccc3c2=O)CC1 (centres undefined) [AZELASTINE] | 2.46
CN1C(=O)CC(C)(CCc2cccc(-c3ccccc3)c2)N=C1N (centres undefined) | 2.03
Oc1ccc(-c2csc(-c3ccc(O)cc3)n2)cc1 | 3.7
COc1ccc(-c2ccc3c(N4CCOC[C@@H]4C)nc(-n4ccnc4)nc3n2)cc1CO | 2.6
COCCOc1cc2nccc(Nc3cc(O)c(Cl)cc3F)c2cc1OC | 2.64
C[C@@](O)(C(=O)Nc1ccc(S(=O)(=O)NCCN2CCOCC2)cc1Cl)C(F)(F)F | 2.14
Cn1c(N)nc(CCc2ccccc2)cc1=O | 2
O=c1oc2ccccc2cc1-c1ccccc1 | 3.22
O=c1oc2c(O)cccc2cc1-c1ccc(O)cc1 | 2.8
O=c1[nH]n(C(c2ccccn2)C2CC2)c(=O)c2c(O)c3ccc(Cl)cc3nc12 (centres undefined) | 1
COc1ccc(CN2C(=O)CCC2(C)C(=O)NC2CCCCC2)c(OC)c1 (centres undefined) | 2.38
C[C@H](CO)Nc1nc(SCc2cccc(Cl)c2)nc2nc(N)sc12 | 3.31
COc1cccc(NC(=O)c2cccc(Cc3c(C)nn(CCO)c3-c3ccccc3)c2)c1 | 4.29
Cn1cncc1-c1c2c(=O)n(C3CC3)c(=O)n(CC3CC3)c2nn1Cc1ccnc2ccc(Cl)cc12 | 3.53
Cc1cc(C)c2c(N)c(C(=O)NCc3ccccc3)sc2n1 | 3.41
Cn1cc(C#N)cc1-c1c2c(=O)n(CC#CCn3cncn3)c(=O)n(CC3CC3)c2nn1Cc1ccnc2ccc(Cl)cc12 | 3.43
COc1cnc(-c2ccccn2)nc1Oc1ccc(F)cc1F | 3.1

Compound | logD
COc1ccc(NC(=O)c2ccc(-c3ccncc3)c(C)c2)cc1N1CCN(C)CC1 | 2.56
COc1ccccc1CN[C@H]1CCCN[C@H]1c1ccccc1 [CP-99994] | 1.5
CNC(=O)c1ccc(Nc2ncc(F)c(-c3cnc(C)n3C(C)C)n2)cc1F | 3.31
O=C(NC[C@@H](O)CN1CCC(Oc2ccc(Cl)c(Cl)c2)CC1)c1c[nH]c(=O)c2c(F)cccc12 | 3.15
N[C@@H](Cc1ccc(F)cc1)C(=O)O | -1.06
CC(=N)NCc1ccccc1 | -0.28
CC(C)C(NC(=O)Cn1c(-c2ccccc2)cc2c(O)nc(O)nc2c1=O)C(=O)C(F)(F)F (centres undefined) | 1.88
O=c1[nH]c2c(O)ccc([C@@H](O)CNCCCSCCOCCc3ccccc3)c2s1 | 2.3
Cc1cccc(Br)c1C(=O)N[C@@H](Cc1ccc(NC(=O)c2c(Cl)cccc2Cl)cc1)C(=O)O | -0.13
CN1CC=CCC(c2cc3ccccc3o2)C1 (centres undefined) | 2.47
N=C(N)Nc1ccc(C(=O)Oc2ccccc2)cc1 | -0.21
CCNCc1cnc(-c2ccc(C(=O)Nc3ccccc3N)cc2)s1 | 0.95
O=C(CC1CCN(Cc2ccn(-c3ccc(C(F)(F)F)cc3)c2)CC1)N(CCCO)Cc1ccc(F)cc1 | 3.04
CN(CCCc1ccccc1)S(=O)(=O)c1cc(C(=O)N2CCc3ccc(S(=O)(=O)NCCc4ccccc4)cc3C2)c(O)c(O)c1O | 0.75
Cc1ccc(CO)cc1N(C)c1ccnc(Nc2cc(C(=O)N3CCOCC3)cc(N3CCOCC3)c2)n1 | 2.2
NC(=O)Cc1nc(-c2ccccc2)cs1 | 1.3
Oc1ccc2[nH]c(CN3CCC(Cc4ccc(F)cc4)CC3)nc2c1 | 3.8
CN(CC[C@@H](Oc1ccc(-c2ccccc2)cc1)c1ccc(F)cc1)CC(=O)O | 2.86
CCC(=O)NCC[C@@H]1CCc2ccc3c(c21)CCO3 [RAMELTEON] | 2.57
O=C(CCCc1ccncc1)N1CCN(c2ccc(Cl)cc2Cl)CC1 | 3.93
O=c1[nH]ccc2nc(-c3ccc(CN4CCC(c5n[nH]c(-c6ccccn6)n5)CC4)cc3)c(-c3ccccc3)cc12 | 3.9
C[C@H](Oc1ccc(S(C)(=O)=O)cc1C(=O)N1CCN(c2ncc(C(F)(F)F)cc2F)CC1)C(F)(F)F [BITOPERTIN] | 3.49

Compound | logD
Cc1cc(COC(=O)Nc2ccc(-c3ccccc3)n(CC(=O)NC(C(=O)C(F)(F)F)C(C)C)c2=O)cc(C)n1 (centres undefined) | 2.38
COc1cc2c(Nc3ccc(F)cc3F)c(C(N)=O)cnc2cc1NCCN(C)C | 1.71
Fc1ccc(CNc2ncc(Br)c(Nc3cc(C4CC4)[nH]n3)n2)cc1 | 4.28
CC1(C)C(=O)Nc2ccccc21 | 2.3
CN(C)S(=O)(=O)c1ccc2c(C(=O)NC[C@@H](O)CN3CCC(Oc4ccc(Cl)c(Cl)c4)CC3)c[nH]c(=O)c2c1 | 3.13
O=C(O)c1ccc2cccc(O)c2n1 | 3.3
COc1cc(/C=C2/SC(=O)NC2=O)cc(OC)c1O | 0.74
COc1cccc(C(COCc2cc(C(F)(F)F)cc(C(F)(F)F)c2)N2CCNCC2)c1 (centres undefined) | 3.1
C[C@@](Cc1ccc(O)c(O)c1)(NN)C(=O)O [CARBIDOPA ANHYDROUS] | -0.7
Cc1ncc(CO)c(CO)c1O [PYRIDOXINE] | -0.58
CC[S+]([O-])c1ncccc1C1(O)CCN(CC23CC(c4ccccc42)c2ccccc23)CC1 (centres undefined) | 2
C[C@@H]1CN(c2noc(C(F)F)n2)CCN1c1ncc(OCc2ccncc2C#N)cn1 | 2.85
CCC(c1nc2ccsc2c(=O)n1Cc1ccccc1)N(CCCN)C(=O)c1ccc(C)cc1 (centres undefined) | 1.81
CN1CCCC(CN2CCN(C(=O)Nc3ccc(Cl)c(Cl)c3)CC2)C1 (centres undefined) | 1.98
NC(=O)Nc1cc(-c2cccc(O)c2)sc1C(N)=O | 2.21
CCN1CCN(C(=O)c2cc3cc(Cl)ccc3[nH]2)CC1 | 3.14
CN(C)CCCn1c2c(c3ccccc31)CCCCCC2 [IPRINDOLE] | 2.96
NC1(C(=O)N[C@@H](CCN2CCCCC2)c2ccc(Cl)cc2)CCN(c2ncnc3[nH]ccc23)CC1 | 2.4
C[C@H](N)C(=O)N[C@H](/C=C/S(=O)(=O)c1ccccc1)CCc1ccccc1 | 1.66
CCCSc1nc2ccc(NC(=O)CCC(=O)O)cc2s1 | 0.5
COc1cc(N2CCN(C(C)=O)CC2)ccc1Nc1ncc(Br)c(-c2cnc3ccccn23)n1 | 3.7
CN1CCN(c2cc(F)cc3c(=O)cc(C(=O)Nc4ccc(N5CCOCC5)cc4)[nH]c23)CC1 | 2.7
